Laboratory results as given in US9145375B2, “Quinazolinone compounds” (PRANA BIOTECHNOLOGY LIMITED, priority 2008, dated 2015).
pIC50: −log10 of the molar value.

Legend:
[1] = test system: 6-OHDA lesion of the SNpc; assay: Parkinson's disease in vivo: 6-OHDA model; parameters: species or system mouse; conditions: 6-OHDA lesioned mice
Protocol: Parkinson's Disease In Vivo Technique: 6-OHDA Model
Preparation of the toxin 6-OHDA (1.65 mg/mL, Sigma Cat# H-4381):
6-OHDA toxin is dissolved in ascorbic acid solution (0.2 mg/mL in dH2O), store in dark on ice. To increase the speed of anaesthesia and reduce stress to the mouse, there is premedication with atropine (0.5 mg/kg) and xylazine (10 mg/kg) is injected subcutaneously via a 27 gauge needle).
To Prepare the Lesion Needle to Inject 6-OHDA:
PBS is sucked up into the line (ensure no air bubbles) with up to […] in a Hamilton syringe. Syringe is placed the in the Kd Scientific syringe pump and secured. Pump is turned the on and syringe is loaded into the pump. Pump volume is set at […] and the rate is set at 0.5 ml/min. The lesion needle is positioned so that the bevelled (eye) of the needle is at a 45° angle from the midline and tightened to secure the needle. Pump is run and checked for fluid coming out.
3-4% isoflurane is carried by oxygen to induce anaesthesia and 1-2% for maintenance of anaesthesia. Animal is placed in small induction chamber and subjected to a few minutes of 4% isoflurane in oxygen at a flow rate of approx 1 l/min. Mouse is then placed in stereotaxic frame. The anaesthetic tube is disconnected from induction box and isoflurane reduced to 2% conc and oxygen flow rate to approx […]. Tube is connected to the nose piece attached to stereotaxic frame so that anaesthetic gas can be constantly administered during surgery. LHS ear bar is screwed at approx 3 mm. RHS ear bar is screwed in until there is no sideways head movement (about 5 mm). Front incisors are placed over the mouthguard and put nose-guard on (3 mm below 0). Mouthguard is screwed into place and ensured the top of the mouse's head is level (re-check this once the animal's skull is exposed).
Using a scalpel (size 4, blade 22), the scalp is cut down the centreline of the mouse's head to expose the skull. Typically 10-15 mm. The surface of the skull is dried with a cotton bud. Drill hole is measured with a ruler 3 mm posterior from Bregma and between 1 and 1.5 mm laterally from the centre line. The skull is drilled into this position until the surface of the brain is exposed.
6-OHDA is sucked up to fill approximately 15 cm of the line and the syringe. Fluid is ensured to be coming out of needle. The bevelled of the needle is aligned over the centreline where Bregma crosses, viewed by Motik dissecting microscope. The needle is ensured to be a few mm above the skull before positioning. Frame is moved 2.9 mm in a posterior direction and 1.1 mm (11 small notches) laterally to the right (for RHS injections) from the starting coordinates at Bregma. Needle is moved down until the tip of the needle just touches the surface of the brain.
Needle is lowered to the required depth of 4.6 mm and brain is allowed to settle for 2 min.
[…] of toxin is injected into the RHS SNpc, taking 4 min. 2 min is allowed to ensure the toxin disperses. Needle is withdrawn and antiseptic applied to the wound, with suture or superglue to close.
Mouse is wrapped in a piece of tissue and placed in a warm recovery box (on a heat pad) with water bottles (50 ml tubes) warmed to 50 C. Panadol® syrup is added to mouse's water bottle.
Rotation is recorded by the Computer based Rotacount system—(Columbus Instruments, Columbus, Ohio, USA). The system comprised of 8 bowls with sensors connected to a computer which measures incremental turns (90 degrees and full turns 360 degrees) either clockwise or counter clockwise. The sensors are positioned above the centre of each bowl about 30 cm above each. Tubing and a thin empty plastic pipette are attached so that the sensor is now extended to with a few cm of the base of the bowl.
Mice are placed individually into the eight bowls. Mice are secured to the pipettes via a cable tie and tape. […]

Fe-DA = assay: H2O2 assay, Fe-DA (% cf. Fe 0.4 μM/DA 50 μM); type: biochemical; conditions: Fe 0.4 μM/DA 50 μM
Protocol: (§1) This fluoresence assay evaluates the ability of a test compound to inhibit the generation of hydrogen peroxide (H2O2) by iron in the presence of a reducing substrate such as ascorbic acid. In the assay, iron in the form of FeCl3 or copper is allowed to react with ascorbic acid by incubating for 1 hr at 37° C. in the presence of the fluorescing compound DCF and horseradish peroxidase. H2O2 generated by the system is assessed by measuring the specific fluorescence profile at the excitation and emission wavelengths of 485 and 530 nm respectively, in the presence of increasing concentrations of test compound. Test compounds are ranked according to their capacity to inhibit H2O2 generated by the system where lower values reflect greater ability to inhibit H2O2 production.

[2] = test system: generation of hydrogen peroxide (H2O2) by iron; assay: H2O2 Inhibition Assay; type: biochemical
Protocol: Assay 1. H2O2 Inhibition Assay.
as §1

Row | SMILES | Behaviour (Rotation) % SSV ([1]; SSV = 0%, dose not given) | Behaviour (Rotation) total turns/h ± SD ([1]; dose not given) | SN cell counts % of SSV (SSV = 0%) ([1]; dose not given) | SN cell counts (cells ± SD) ([1]; dose not given) | Fe-DA % cf. Fe 0.4 μM/DA 50 μM (Fe-DA) | pIC50 [2] | other results
1 | CN(C)Cc1nc2c(O)c(Cl)cc(Cl)c2c(=O)n1CC1CC1 [Compound F4267] | – | – | – | – | – | – | Behaviour (Rotation) % SSV ([1]; 5 mg kg): 7.01%; Behaviour (Rotation) total turns/h ± SD ([1]; 5 mg kg): (240.89 ± 171.99) turns/h; SN cell counts % of SSV (SSV = 0%) ([1]; 5 mg kg): 55.79%; SN cell counts (cells ± SD) ([1]; 5 mg kg): (2992.00 ± 883.84) cells; Behaviour (Rotation) % SSV ([1]; 15 mg kg): −23.39%; Behaviour (Rotation) total turns/h ± SD ([1]; 15 mg kg): (319.67 ± 171.05) turns/h; SN cell counts % of SSV (SSV = 0%) ([1]; 15 mg kg): 77.86%; SN cell counts (cells ± SD) ([1]; 15 mg kg): (3415.96 ± 498.05) cells; Behaviour (Rotation) % SSV ([1]; 30 mg kg): 36.33%; Behaviour (Rotation) total turns/h ± SD ([1]; 30 mg kg): (164.93 ± 110.90) turns/h; SN cell counts % of SSV (SSV = 0%) ([1]; 30 mg kg): 110.44%; SN cell counts (cells ± SD) ([1]; 30 mg kg): (4041.70 ± 799.55) cells
2 | CCn1c(CN(C)C)nc2c(O)c(Cl)cc(Cl)c2c1=O.Cl [Compound F4268] | 56.04% | (114.56 ± 71.86) turns/h | 93.96% | (3725.04 ± 842.65) cells | – | – | –
3 | CN(C)Cc1nc2c(O)c(Cl)cc(Cl)c2c(=O)n1C [Compound F4269, 5,7-Dichloro-2-(dimethylamino)methyl-8-hydroxy-3-methylquinazolin-4(3H)-one] | 48.85% | (132.50 ± 81.93) turns/h | 68.91% | (3243.93 ± 724.98) cells | – | – | –
4 | CCN(CC)Cc1nc2c(O)c(Cl)cc(Cl)c2c(=O)n1CC1CC1 [Compound F4385] | 49.98% | (129.57 ± 16.26) turns/h | 56.81% | (3011.56 ± 502.27) cells | 86% | 6.04 | –
5 | C#CCN(C)Cc1nc2c(O)c(Cl)cc(Cl)c2c(=O)n1CC1CC1 [Compound F4387] | 24.51% | (195.57 ± 114.48) turns/h | 46.90% | (2821.24 ± 940.22) cells | 77% | 6.34 | –
6 | Br.CCn1c(CNC)nc2c(O)c(Cl)cc(Cl)c2c1=O [Compound F4486] | – | – | – | – | 56% | 5.71 | –
7 | CCNCc1nc2c(O)c(Cl)cc(Cl)c2c(=O)n1CC [Compound F4495] | 18.06% | (212.29 ± 101.41) turns/h | 57.22% | (3019.56 ± 318.79) cells | 45% | 6.11 | –
8 | Br.CCNCc1nc2c(O)c(Cl)cc(Cl)c2c(=O)n1C [Compound F4496] | 36.62% | (164.20 ± 100.40) turns/h | 95.68% | (3758.11 ± 510.98) cells | 45% | 6.08 | –
